US7862798B2, “Vitamin-targeted imaging agents” (Endocyte, Inc., priority 2002, dated 2011)
“Also recorded” adds a separate entry of the source.

Legend:
FR-positive M109 tumors [1] = assay: Tissue distribution, subcutaneous M109 tumors (Example 11)
Procedure: The ability of ^99mTc-EC20 to target tumors in vivo was assessed using a FR-positive M109 model.
Four to five week-old mice (Balb/c strain) were purchased from Harlan Sprague Dawley, Inc. (Indianapolis, Ind.) and were maintained on a folate-free diet for a total of three weeks prior to the experiment. Syngeneic, FR-positive M109 tumor cells (1×10^6 per animal) were inoculated in the subcutis of the right axilla two weeks prior to the experiment.
Animals received an approximate 40 μmol/kg i.v. dose of test article in 100 μL volume via a lateral tail vein during brief diethyl ether anesthesia. Four hours post-injection, animals were sacrificed by CO2 asphyxiation, and dissected. Selected tissues were removed, weighed, and counted to determine ^99mTc distribution. CPM values were decay-corrected, and results were tabulated as % injected dose per gram of wet weight tissue.

FR-positive M109 tumors [2] = assay: Gamma scintigraphy; format: in vivo, Balb/c mice; settings: 4 hr after i.v. administration, M109 tumor-bearing Balb/c mouse
Procedure: Whole body image acquisition was performed for 1 minute at a count rate of 50-75,000 counts per minute using a Technicare Omega 500 Sigma 410 Radioisotope Gamma Camera. All data were analyzed using a Medasys MS-DOS-based computer equipped with Medasys Pinnacle software.

[3] = Serum protein binding (ultrafiltration), human serum; format: in vitro ADME; settings: room temperature, ultrafiltration 30,000 NMWL
Procedure: Fresh rat serum, and commercial male human serum (type AB donors, Sigma Chemical Co.) were used to evaluate in vitro binding of ^99mTc˜EC20 to serum proteins. One minute after ^99mTc-EC20 was mixed with 1 mL of serum at room temperature, 0.3 mL of the serum solution was transferred to a clean Amicon Centrifree® ultrafiltration device (30,000 NMWL) in triplicate. Within one minute of loading the centrifuge with the serum solution, the device was spun at 1000×g for 20 minutes at 20° C. 50 μL samples of the original solution, and of the filtrate from each device, was transferred to a clean tube and counted in an automatic gamma counter. A control solution of ^99mTc˜EC20 mixed with 1 mL of normal saline was ultrafiltered in an identical fashion. The percentage of free ^99mTc was calculated for each of the three samples.

[4] = Radiochemical stability by HPLC; format: physicochemical; settings: room temperature, protected from light, at least 24 hours
Procedure: The radiochemical stability of the radioactive drug substance was determined by HPLC after storing at room temperature protected from light for up to 24 hours. Samples of the ^99mTc-EC20 solution (20 μL) were analyzed using an HPLC system consisting of a Waters 600E Multisolvent Delivery System and 490 UV detector, a Bioscan EC-3200 radiodetector, Laura v1.5 radiochromatogram software, and a Waters Nova-Pak C18 (3.9×150 mm) column. Injected samples were eluted isocratically using an aqueous mobile phase containing 20% methanol and 0.1% trifluoroacetic acid at a flow rate of 1 mL/min. The HPLC analysis was monitored with both the UV detector (280 nm) and the gamma radiodetector.

[5] = HPLC speciation of the 99mTc-EC20 standard in saline over 6 hr; format: physicochemical; settings: for Area Percent, Sum C and D / Area Percent, peak A (pertechnetate) / Area Percent, peak B (unknown) / Area Percent, peak C (isomer 1) / Area Percent, peak D (isomer 2): 99mTc-EC20 Standard
Procedure: The urinary HPLC speciation profile of ^99mTc-EC20 was obtained using Balb/c mice. Mice (˜20 g each) were injected with 1 mCi (6.7 nmol) of ^99mTc-EC20 via a lateral tail vein. Following a 1, 4, or 6 hour time period, groups of two mice were euthanized by CO2 asphyxiation and urine was collected. After filtration through a GV13 Millex filter, the radiochemical speciation was assessed using an HPLC system equipped with a Nova-Pak C18 3.9×150 mm column and a radiochemical detector. The system was isocratically eluted with 20% methanol containing 0.1% TFA at a flow rate of 1 mL/minute.
It was previously determined that the primary elimination route for ^111In-DTPA-Folate was via the urine. […] As shown in Table 4 (below), the radiochemical purity of the standard (sum of peaks C and D presumably corresponding to the syn and anti ^99mTc-EC20) remained constant at ˜93% over the 6 hr duration of this experiment. The amount of free ^99mTc in the standard (peak A) was ˜2%.

[6] = 4 hr post i.v., + Folic acid (100 equivalents)
[7] = 4 hr post intravenous injection

[NH-][C@@H](CNC(=O)CC[C@@H](NC(=O)c1ccc(NCc2cnc3nc(N)[nH]c(=O)c3n2)cc1)C(=O)O)C(=O)[N-][C@@H](CC(=O)O)C(=O)[N-][C@@H](C[S-])C(=O)O.[O]=[Tc+4] [^99mTc-EC20]
Blood (FR-positive M109 tumors [1]; [6]): 0.09 ± 0.02 % Injected Dose per Gram Tissue
Heart (FR-positive M109 tumors [1]; [6]): 0.08 ± 0.01 % Injected Dose per Gram Tissue
Intestine (FR-positive M109 tumors [1]; [6]): 2.93 ± 1.49 % Injected Dose per Gram Tissue
Kidney (FR-positive M109 tumors [1]; [6]): 5.64 ± 2.13 % Injected Dose per Gram Tissue
Liver (FR-positive M109 tumors [1]; [6]): 1.15 ± 0.22 % Injected Dose per Gram Tissue
Lung (FR-positive M109 tumors [1]; [6]): 0.31 ± 0.26 % Injected Dose per Gram Tissue
Muscle (FR-positive M109 tumors [1]; [6]): 0.06 ± 0.02 % Injected Dose per Gram Tissue
Spleen (FR-positive M109 tumors [1]; [6]): 0.38 ± 0.33 % Injected Dose per Gram Tissue
Stomach (FR-positive M109 tumors [1]; [6]): 3.35 ± 5.19 % Injected Dose per Gram Tissue
Tumor (FR-positive M109 tumors [1]; [6]): 0.45 ± 0.18 % Injected Dose per Gram Tissue
Tumor/Blood (FR-positive M109 tumors [1]; [6]): 4.70 ± 1.30
Blood (FR-positive M109 tumors [1]; [7]): 0.34 ± 0.03 % Injected Dose per Gram Tissue
Heart (FR-positive M109 tumors [1]; [7]): 1.57 ± 0.26 % Injected Dose per Gram Tissue
Intestine (FR-positive M109 tumors [1]; [7]): 2.56 ± 0.61 % Injected Dose per Gram Tissue
Kidney (FR-positive M109 tumors [1]; [7]): 138 ± 12.4 % Injected Dose per Gram Tissue
Liver (FR-positive M109 tumors [1]; [7]): 3.56 ± 0.25 % Injected Dose per Gram Tissue
Lung (FR-positive M109 tumors [1]; [7]): 2.22 ± 0.63 % Injected Dose per Gram Tissue
Muscle (FR-positive M109 tumors [1]; [7]): 0.67 ± 0.20 % Injected Dose per Gram Tissue
Spleen (FR-positive M109 tumors [1]; [7]): 0.95 ± 0.15 % Injected Dose per Gram Tissue
Stomach (FR-positive M109 tumors [1]; [7]): 1.45 ± 0.55 % Injected Dose per Gram Tissue
whole-body gamma image, localization of radiotracer (FR-positive M109 tumors [2]): localizes the gamma radiation to the two kidneys (K) and the M109 tumor mass; also recorded: Only the kidneys (K) and tumor (T) exhibit significant accumulation
associated with the >30 kDa serum protein fraction [3]: 72%
radiochemical purity on storage [4]: greater than 90%
Area Percent, Sum C and D ([5]; 0 hr): 93.5 Area Percent
Area Percent, peak A (pertechnetate) ([5]; 0 hr): 2 Area Percent
Area Percent, peak B (unknown) ([5]; 0 hr): 4.5 Area Percent
Area Percent, peak C (isomer 1) ([5]; 0 hr): 15.5 Area Percent
Area Percent, peak D (isomer 2) ([5]; 0 hr): 78 Area Percent
Area Percent, Sum C and D ([5]; 1 hr): 93.4 Area Percent
Area Percent, peak A (pertechnetate) ([5]; 1 hr): 2.1 Area Percent
Area Percent, peak B (unknown) ([5]; 1 hr): 4.5 Area Percent
Area Percent, peak C (isomer 1) ([5]; 1 hr): 15.7 Area Percent
Area Percent, peak D (isomer 2) ([5]; 1 hr): 77.7 Area Percent
Area Percent, Sum C and D ([5]; 6 hr): 93.4 Area Percent
Area Percent, peak A (pertechnetate) ([5]; 6 hr): 1.8 Area Percent
Area Percent, peak B (unknown) ([5]; 6 hr): 4.8 Area Percent
Area Percent, peak C (isomer 1) ([5]; 6 hr): 15.9 Area Percent
Area Percent, peak D (isomer 2) ([5]; 6 hr): 77.5 Area Percent
radiochemical purity of the standard (sum of peaks C and D) ([5]; constant over the 6 hr duration, saline solution): ~93%
free 99mTc in the standard (peak A) ([5]; saline solution): ~2%
